For orientation: EC50 means the concentration that produces a half-maximal response.

Starred links: 1 amine or outer side, 2 acyl side, 3 side chain; linkers in the order of their positions; H or OH if unused. Non-standard residues stand in square brackets, D forms with d. Residues, ends and D or L forms follow the SMILES beside them. Groups on a side chain read outwards from the residue. *: point of attachment. C18 diacid = O=C(O)CCCCCCCCCCCCCCCCC(=O)*; γGlu = O=C(O)[C@H](CCC(=O)[*:2])N[*:1]; αMeF = C[C@](N)(Cc1ccccc1)C(=O)O; PEG4 = NCCOCCOCCOCCOCCC(=O)O; AEEA = NCCOCCOCC(=O)O; Aib = CC(C)(N)C(=O)O

The results in this text go back to patent publication US20250353891A1 (MEDIMMUNE LIMITED, priority 2022, published 2025).

In assay [1] the target is human GLP-1 receptor (hGLP-1R) (Homo sapiens, UniProt P43220). As to the kind of experiment: cAMP production (HTRF) in CHO cells expressing hGLP-1R. In kind it is cell-based. Also on record: expressed in transfected cells. The conditions noted are these: for EC50: Table 7, peptides modified at position 20, cAMP in CHO hGLP-1R cells, geometric mean, read-out: hGLP-1R EC50; for % Relative Potency Ratio: Table 7, % GLP-1R activity relative to GLP-1 / % GlucR activity relative to glucagon. The method, boiled down: (§1)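 Cells were resuspended in assay buffer at batch-optimized density, typically 1×10^5 cells/mL for hGLP-1R and 2×10^5 cells/mL for hGCGR. After 30 min incubation at room temperature with compound, cAMP was measured by two-step HTRF. EC50 values came from 4-parameter logistic fits of % Delta F.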
(In general: Changes in cAMP serve as a functional read-out for many G protein-coupled receptors.)

Assay [2] concerns the target human glucagon receptor (hGCGR) (Homo sapiens, UniProt P47871). As to the kind of experiment: cAMP production (HTRF) in CHO cells expressing hGCGR. In kind it is cell-based. Further details: expressed in transfected cells. As to conditions: Table 7, peptides modified at position 20; cAMP in CHO hGCGR cells; geometric mean; read-out: hGluc-R EC50. In short, it runs like this: as §1

Chain of human glucagon receptor (hGCGR) (P47871 26-477): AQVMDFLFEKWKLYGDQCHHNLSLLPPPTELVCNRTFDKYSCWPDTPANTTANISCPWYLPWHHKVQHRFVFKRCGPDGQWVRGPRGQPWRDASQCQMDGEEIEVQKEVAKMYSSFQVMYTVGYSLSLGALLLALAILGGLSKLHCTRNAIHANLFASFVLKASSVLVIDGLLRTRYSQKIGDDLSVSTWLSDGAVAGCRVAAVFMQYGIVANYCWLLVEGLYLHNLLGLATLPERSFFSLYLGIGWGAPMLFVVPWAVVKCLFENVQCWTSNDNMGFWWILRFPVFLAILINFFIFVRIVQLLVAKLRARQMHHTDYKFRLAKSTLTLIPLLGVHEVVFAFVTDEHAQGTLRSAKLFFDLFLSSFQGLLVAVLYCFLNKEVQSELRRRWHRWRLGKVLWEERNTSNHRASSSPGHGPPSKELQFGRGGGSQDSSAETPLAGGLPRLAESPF
Chain of human GLP-1 receptor (hGLP-1R) (P43220 24-463): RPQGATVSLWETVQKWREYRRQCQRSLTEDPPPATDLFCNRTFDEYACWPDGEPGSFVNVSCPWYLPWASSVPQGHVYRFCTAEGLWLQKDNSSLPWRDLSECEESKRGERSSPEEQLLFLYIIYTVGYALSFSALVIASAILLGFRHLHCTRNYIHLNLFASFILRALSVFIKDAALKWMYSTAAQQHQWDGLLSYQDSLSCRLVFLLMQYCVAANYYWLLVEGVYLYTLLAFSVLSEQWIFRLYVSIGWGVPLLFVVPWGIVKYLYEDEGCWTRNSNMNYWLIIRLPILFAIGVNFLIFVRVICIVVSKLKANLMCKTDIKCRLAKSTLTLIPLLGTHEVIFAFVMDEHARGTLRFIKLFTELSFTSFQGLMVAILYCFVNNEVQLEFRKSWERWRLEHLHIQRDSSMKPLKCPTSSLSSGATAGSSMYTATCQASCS

For `CC[C@H](C)[C@H](NC(=O)[C@H](Cc1c[nH]c2ccccc12)NC(=O)[C@H](CCC(=O)O)NC(=O)[C@@H](NC(=O)[C@H](Cc1ccccc1)NC(=O)[C@H](CC(=O)O)NC(=O)[C@H](CCCCNC(=O)COCCOCCNC(=O)COCCOCCNC(=O)CC[C@H](NC(=O)CCCCCCCCCCCCCCCCC(=O)O)C(=O)O)NC(=O)[C@H](C)NC(=O)[C@H](C)NC(=O)[C@H](CCCNC(=N)N)NC(=O)[C@H](CO)NC(=O)[C@H](CC(=O)O)NC(=O)[C@H](CC(C)C)NC(=O)[C@](C)(Cc1ccccc1)NC(=O)[C@H](CCCCN)NC(=O)[C@H](CO)NC(=O)[C@@H](NC(=O)[C@H](CC(=O)O)NC(=O)[C@H](CO)NC(=O)[C@@H](NC(=O)[C@H](Cc1ccccc1)NC(=O)[C@@H](NC(=O)CNC(=O)[C@H](CCC(N)=O)NC(=O)C(C)(C)NC(=O)[C@@H](N)Cc1c[nH]cn1)[C@@H](C)O)[C@@H](C)O)C(C)C)C(C)C)C(=O)N[C@@H](C)C(=O)N[C@@H](CC(N)=O)C(=O)N[C@H](C(N)=O)[C@@H](C)O` [Peptide 306], the EC50 in assay [1] is 47.2 pM; in assay [2] it was 775 pM. Moreover, the “% Relative Potency Ratio” value in assay [1] amounted to 32.5.

Turning to `CC[C@H](C)[C@H](NC(=O)[C@H](Cc1c[nH]c2ccccc12)NC(=O)[C@H](CCCNC(=N)N)NC(=O)[C@@H](NC(=O)[C@H](Cc1ccccc1)NC(=O)[C@H](CC(=O)O)NC(=O)[C@H](CCCCNC(=O)COCCOCCNC(=O)COCCOCCNC(=O)CC[C@H](NC(=O)CCCCCCCCCCCCCCCCC(=O)O)C(=O)O)NC(=O)[C@H](C)NC(=O)[C@H](C)NC(=O)[C@H](CCCNC(=N)N)NC(=O)[C@H](CO)NC(=O)[C@H](CC(=O)O)NC(=O)[C@H](CC(C)C)NC(=O)[C@](C)(Cc1ccccc1)NC(=O)[C@H](CCCCN)NC(=O)[C@H](CO)NC(=O)[C@@H](NC(=O)[C@H](CC(=O)O)NC(=O)[C@H](CO)NC(=O)[C@@H](NC(=O)[C@H](Cc1ccccc1)NC(=O)[C@@H](NC(=O)CNC(=O)[C@H](CCC(N)=O)NC(=O)C(C)(C)NC(=O)[C@@H](N)Cc1c[nH]cn1)[C@@H](C)O)[C@@H](C)O)C(C)C)C(C)C)C(=O)N[C@@H](C)C(=O)N[C@@H](CC(N)=O)C(=O)N[C@H](C(N)=O)[C@@H](C)O` [Peptide 307], in assay [1], the EC50 amounted to 22.2 pM and the “% Relative Potency Ratio” value turned out to be 100.5. The 50% effective concentration (EC50) in assay [2] was determined as 1130 pM.

For the compound `CC[C@H](C)[C@H](NC(=O)[C@H](Cc1c[nH]c2ccccc12)NC(=O)[C@H](CCC(N)=O)NC(=O)[C@@H](NC(=O)[C@H](Cc1ccccc1)NC(=O)[C@H](CC(=O)O)NC(=O)[C@H](CCCCNC(=O)COCCOCCNC(=O)COCCOCCNC(=O)CC[C@H](NC(=O)CCCCCCCCCCCCCCCCC(=O)O)C(=O)O)NC(=O)[C@H](C)NC(=O)[C@H](C)NC(=O)[C@H](CCCNC(=N)N)NC(=O)[C@@H](NC(=O)[C@H](CC(=O)O)NC(=O)[C@H](CC(C)C)NC(=O)[C@](C)(Cc1ccccc1)NC(=O)[C@H](CCCCN)NC(=O)[C@H](CO)NC(=O)[C@@H](NC(=O)[C@H](CC(=O)O)NC(=O)[C@H](CO)NC(=O)[C@@H](NC(=O)[C@H](Cc1ccccc1)NC(=O)[C@@H](NC(=O)CNC(=O)[C@H](CCC(N)=O)NC(=O)C(C)(C)NC(=O)[C@@H](N)Cc1c[nH]cn1)[C@@H](C)O)[C@@H](C)O)C(C)C)[C@@H](C)O)C(C)C)C(=O)N[C@@H](C)C(=O)N[C@@H](CC(N)=O)C(=O)N[C@H](C(N)=O)[C@@H](C)O` [Peptide 308] (H-H[Aib]QGTFTSDVSK[αMeF]LDTRAAK([AEEA-AEEA-γGlu-C18 diacid])DFVQWIANT-NH2; N-terminus assumed), in assay [1], the EC50 was found to be 27.5 pM and the “% Relative Potency Ratio” value is listed as 123.4. Moreover, the EC50 in assay [2] turned out to be 1720 pM.

On to `CC[C@H](C)[C@H](NC(=O)[C@H](Cc1c[nH]c2ccccc12)NC(=O)[C@H](CCC(N)=O)NC(=O)[C@@H](NC(=O)[C@H](Cc1ccccc1)NC(=O)[C@H](CC(=O)O)NC(=O)[C@H](CCCCNC(=O)COCCOCCNC(=O)COCCOCCNC(=O)CC[C@H](NC(=O)CCCCCCCCCCCCCCCCC(=O)O)C(=O)O)NC(=O)[C@H](C)NC(=O)[C@H](C)NC(=O)[C@H](CCCNC(=N)N)NC(=O)[C@H](CCC(=O)O)NC(=O)[C@H](CC(=O)O)NC(=O)[C@H](CC(C)C)NC(=O)[C@](C)(Cc1ccccc1)NC(=O)[C@H](CCCCN)NC(=O)[C@H](CO)NC(=O)[C@@H](NC(=O)[C@H](CC(=O)O)NC(=O)[C@H](CO)NC(=O)[C@@H](NC(=O)[C@H](Cc1ccccc1)NC(=O)[C@@H](NC(=O)CNC(=O)[C@H](CCC(N)=O)NC(=O)C(C)(C)NC(=O)[C@@H](N)Cc1c[nH]cn1)[C@@H](C)O)[C@@H](C)O)C(C)C)C(C)C)C(=O)N[C@@H](C)C(=O)N[C@@H](CC(N)=O)C(=O)N[C@H](C(N)=O)[C@@H](C)O` [Peptide 309], for which, in assay [1], the EC50 worked out at 70.6 pM and the “% Relative Potency Ratio” value came out at 486.8. For the same compound, in assay [2], the concentration for a half-maximal effect (EC50) stood at 17400 pM.

In the case of `CC(C)C[C@H](NC(=O)[C@H](Cc1c[nH]c2ccccc12)NC(=O)[C@H](CCC(N)=O)NC(=O)[C@@H](NC(=O)[C@H](Cc1ccccc1)NC(=O)[C@H](CC(=O)O)NC(=O)[C@H](CCCCNC(=O)COCCOCCNC(=O)COCCOCCNC(=O)CC[C@H](NC(=O)CCCCCCCCCCCCCCCCC(=O)O)C(=O)O)NC(=O)[C@H](C)NC(=O)[C@H](C)NC(=O)[C@H](CCCNC(=N)N)NC(=O)[C@H](CO)NC(=O)[C@H](CC(=O)O)NC(=O)[C@H](CC(C)C)NC(=O)[C@](C)(Cc1ccccc1)NC(=O)[C@H](CCCCN)NC(=O)[C@H](CO)NC(=O)[C@@H](NC(=O)[C@H](CC(=O)O)NC(=O)[C@H](CO)NC(=O)[C@@H](NC(=O)[C@H](Cc1ccccc1)NC(=O)[C@@H](NC(=O)CNC(=O)[C@H](CCC(N)=O)NC(=O)C(C)(C)NC(=O)[C@@H](N)Cc1c[nH]cn1)[C@@H](C)O)[C@@H](C)O)C(C)C)C(C)C)C(=O)N[C@@H](CCC(=O)O)C(=O)N[C@@H](C)C(=O)NCC(=O)NCC(N)=O` [Peptide 310], the EC50 in assay [1] worked out at 56.4 pM; in assay [2], 1840 pM. Moreover, the “% Relative Potency Ratio” value in assay [1] is 64.4.

On to `CC(C)C[C@H](NC(=O)[C@H](Cc1c[nH]c2ccccc12)NC(=O)[C@H](CCC(N)=O)NC(=O)[C@@H](NC(=O)[C@H](Cc1ccccc1)NC(=O)[C@H](CC(=O)O)NC(=O)[C@H](CCCCNC(=O)COCCOCCNC(=O)COCCOCCNC(=O)CC[C@H](NC(=O)CCCCCCCCCCCCCCCCC(=O)O)C(=O)O)NC(=O)[C@H](C)NC(=O)[C@H](C)NC(=O)[C@H](CCCNC(=N)N)NC(=O)[C@H](CO)NC(=O)[C@H](CC(=O)O)NC(=O)[C@H](CC(C)C)NC(=O)[C@](C)(Cc1ccccc1)NC(=O)[C@H](CCCCN)NC(=O)[C@H](CO)NC(=O)[C@@H](NC(=O)[C@H](CC(=O)O)NC(=O)[C@H](CO)NC(=O)[C@@H](NC(=O)[C@H](Cc1ccccc1)NC(=O)[C@@H](NC(=O)CNC(=O)[C@H](CCC(N)=O)NC(=O)C(C)(C)NC(=O)[C@@H](N)Cc1c[nH]cn1)[C@@H](C)O)[C@@H](C)O)C(C)C)C(C)C)C(=O)N[C@H](C(=O)N[C@@H](CCC(=O)O)C(=O)N[C@H](C(N)=O)[C@@H](C)O)C(C)C` [Peptide 311], for which, in assay [1], the EC50 turned out to be 35.1 pM and the “% Relative Potency Ratio” value stood at 26.4. Moreover, the half-maximal effective concentration (EC50) in assay [2] was found to be 469 pM.

Turning to `CC(C)C[C@H](NC(=O)[C@H](Cc1c[nH]c2ccccc12)NC(=O)[C@H](CCC(N)=O)NC(=O)[C@@H](NC(=O)[C@H](Cc1ccccc1)NC(=O)[C@H](CC(=O)O)NC(=O)[C@H](CCCCNC(=O)COCCOCCNC(=O)COCCOCCNC(=O)CC[C@H](NC(=O)CCCCCCCCCCCCCCCCC(=O)O)C(=O)O)NC(=O)[C@H](C)NC(=O)[C@H](CCCNC(=N)N)NC(=O)[C@H](CCCNC(=N)N)NC(=O)[C@H](CO)NC(=O)[C@H](CC(=O)O)NC(=O)[C@H](CC(C)C)NC(=O)[C@](C)(Cc1ccccc1)NC(=O)[C@H](CCCCN)NC(=O)[C@H](CO)NC(=O)[C@H](Cc1ccc(O)cc1)NC(=O)[C@H](CC(=O)O)NC(=O)[C@H](CO)NC(=O)[C@@H](NC(=O)[C@H](Cc1ccccc1)NC(=O)[C@@H](NC(=O)CNC(=O)[C@H](CCC(N)=O)NC(=O)C(C)(C)NC(=O)[C@@H](N)Cc1c[nH]cn1)[C@@H](C)O)[C@@H](C)O)C(C)C)C(=O)N[C@H](C(=O)NCCOCCOCCOCCOCCC(N)=O)C(C)C` [Peptide 312] (H-H[Aib]QGTFTSDYSK[αMeF]LDSRRAK([AEEA-AEEA-γGlu-C18 diacid])DFVQWLV[PEG4]-NH2; N-terminus assumed), in assay [1], the EC50 worked out at 152 pM and the “% Relative Potency Ratio” value was 36.1. In addition, the EC50 in assay [2] is 2780 pM.

For `CC(C)C[C@H](NC(=O)[C@H](Cc1c[nH]c2ccccc12)NC(=O)[C@H](CCC(N)=O)NC(=O)[C@@H](NC(=O)[C@H](Cc1ccccc1)NC(=O)[C@H](CC(=O)O)NC(=O)[C@H](CCCCNC(=O)COCCOCCNC(=O)COCCOCCNC(=O)CC[C@H](NC(=O)CCCCCCCCCCCCCCCCC(=O)O)C(=O)O)NC(=O)[C@H](C)NC(=O)C(C)(C)NC(=O)[C@H](CCCNC(=N)N)NC(=O)[C@H](CO)NC(=O)[C@H](CC(=O)O)NC(=O)[C@H](CC(C)C)NC(=O)[C@](C)(Cc1ccccc1)NC(=O)[C@H](CCCCN)NC(=O)[C@H](CO)NC(=O)[C@@H](NC(=O)[C@H](CC(=O)O)NC(=O)[C@H](CO)NC(=O)[C@@H](NC(=O)[C@H](Cc1ccccc1)NC(=O)[C@@H](NC(=O)CNC(=O)[C@H](CCC(N)=O)NC(=O)C(C)(C)NC(=O)[C@@H](N)Cc1c[nH]cn1)[C@@H](C)O)[C@@H](C)O)C(C)C)C(C)C)C(=O)N[C@@H](CC(C)C)C(=O)N[C@@H](CC(N)=O)C(=O)N[C@H](C(=O)O)[C@@H](C)O` [Peptide 313], in assay [1], the EC50 was 138 pM and the “% Relative Potency Ratio” value came out at 17.6. The EC50 in assay [2] was found to be 1230 pM.
